The text below walks through data of patent US20220153741A1, “HETEROCYCLIC COMPOUNDS AS INHIBITORS OF KRAS G12C” (Guangdong Newopp Biopharmaceuticals Co., Ltd., priority 2019, published 2022).

For data set [1] the following is noted: from CC(C)c1nccc(CCC(=O)O)c1-n1c(=O)[nH]c(=O)c2cc(F)c(-c3c(N)cccc3Cl)nc21; amide bond; 12-membered ring; T3P; DCE; 39.3 mM; 50.0 °C.
For data set [2] the following is noted: amide bond.

Where two headings read alike, the source gives them in different places.

For `CC(C)c1nccc2c1-n1c(=O)[nH]c(=O)c3cc(F)c(nc31)-c1c(Cl)cccc1NC(=O)CC2`, the ring closure, isolated yield in data set [1] was found to be 29%. In data set [2] (from CC(C)c1nccc(CCC(=O)O)c1-n1c(=O)[nH]c(=O)c2cc(F)c(-c3c(N)cccc3Cl)nc21, T3P, DCE, 39.3 mM, 50.0 °C, 1.0 h), this molecule yielded a ring closure, yield of all isomers of 29%.

With `CC(C)c1nccc2c1-n1c(=O)[nH]c(=O)c3cc(F)c(nc31)-c1c(F)cccc1NC(=O)CCS2`, the ring closure, yield of all isomers in data set [2] (from CC(C)c1nccc(SCCC(=O)O)c1-n1c(=O)[nH]c(=O)c2cc(F)c(-c3c(N)cccc3F)nc21, T3P, DCE, 58.3 mM, 55.0 °C, 16.0 h) came to 37.4%.

On to `CC(C)c1nccc2c1-n1c(=O)nc(O)c3cc(F)c(nc31)-c1c(F)cccc1NC(=O)CS2`, for which the ring closure, yield of all isomers in data set [2] (from CC(C)c1nccc(SCC(=O)OC(C)(C)C)c1-n1c(=O)nc(O)c2cc(F)c(-c3c(N)cccc3F)nc21, TCFH/N-methylimidazole, DMF, 7.2 mM, 25.0 °C, 1.0 h, 2 steps) was 44.4%.
